From ChEMBL document CHEMBL3991601, “The target landscape of clinical kinase drugs” (Science, 2017)
Activity calls are given as the source filed them. For most assays here, no stated cut-off is given here; in the data, actives have a measured Kd and inactives only a lower limit.

What was measured:
[1] = target: Myosin light chain kinase, smooth muscle (Homo sapiens, UniProt Q15746)
[2] = target: Cyclin-dependent kinase 3 (Homo sapiens, UniProt Q00526)
[3] = target: RAC-gamma serine/threonine-protein kinase (Homo sapiens, UniProt Q9Y243)
[4] = target: Receptor-interacting serine/threonine-protein kinase 3 (Homo sapiens, UniProt Q9Y572)
[5] = target: U5 small nuclear ribonucleoprotein 200 kDa helicase (Homo sapiens, UniProt O75643)
Adenosine kinase = Adenosine kinase (Homo sapiens, UniProt P55263)
Chain of Adenosine kinase (P55263 whole entry): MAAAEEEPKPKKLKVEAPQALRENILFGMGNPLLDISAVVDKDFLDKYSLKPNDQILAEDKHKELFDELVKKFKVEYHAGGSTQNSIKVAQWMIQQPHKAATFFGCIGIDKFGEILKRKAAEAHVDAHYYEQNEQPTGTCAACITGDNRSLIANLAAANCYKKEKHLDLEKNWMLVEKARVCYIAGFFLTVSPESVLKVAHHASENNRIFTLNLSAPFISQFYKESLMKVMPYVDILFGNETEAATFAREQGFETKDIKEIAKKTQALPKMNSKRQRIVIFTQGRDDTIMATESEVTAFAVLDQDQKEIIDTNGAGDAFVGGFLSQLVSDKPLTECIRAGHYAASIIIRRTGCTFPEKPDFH

[6] = target: T1, Peroxisomal acyl-coenzyme A oxidase 3 (Homo sapiens, UniProt O15254)
T1 sequence (O15254 whole entry): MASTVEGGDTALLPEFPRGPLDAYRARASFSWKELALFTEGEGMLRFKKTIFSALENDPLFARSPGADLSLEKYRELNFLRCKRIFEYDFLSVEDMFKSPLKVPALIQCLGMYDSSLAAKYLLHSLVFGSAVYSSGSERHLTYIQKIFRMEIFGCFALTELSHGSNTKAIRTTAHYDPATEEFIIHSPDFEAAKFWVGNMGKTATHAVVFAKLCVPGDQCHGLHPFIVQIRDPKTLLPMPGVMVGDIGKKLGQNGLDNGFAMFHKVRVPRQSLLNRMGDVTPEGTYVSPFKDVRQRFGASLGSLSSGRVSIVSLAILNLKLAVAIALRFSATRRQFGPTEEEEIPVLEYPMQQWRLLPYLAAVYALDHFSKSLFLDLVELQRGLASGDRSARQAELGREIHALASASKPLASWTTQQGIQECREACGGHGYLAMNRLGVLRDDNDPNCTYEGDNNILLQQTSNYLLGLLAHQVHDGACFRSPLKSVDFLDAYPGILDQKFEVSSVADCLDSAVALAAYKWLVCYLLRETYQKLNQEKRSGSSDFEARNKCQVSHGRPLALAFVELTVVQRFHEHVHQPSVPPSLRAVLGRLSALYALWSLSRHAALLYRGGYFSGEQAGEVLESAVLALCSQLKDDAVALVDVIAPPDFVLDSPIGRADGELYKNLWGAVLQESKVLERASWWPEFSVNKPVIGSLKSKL

Ephrin type-A receptor 7 = Ephrin type-A receptor 7 (Homo sapiens, UniProt Q15375)
Chain of Ephrin type-A receptor 7 (Q15375 whole entry): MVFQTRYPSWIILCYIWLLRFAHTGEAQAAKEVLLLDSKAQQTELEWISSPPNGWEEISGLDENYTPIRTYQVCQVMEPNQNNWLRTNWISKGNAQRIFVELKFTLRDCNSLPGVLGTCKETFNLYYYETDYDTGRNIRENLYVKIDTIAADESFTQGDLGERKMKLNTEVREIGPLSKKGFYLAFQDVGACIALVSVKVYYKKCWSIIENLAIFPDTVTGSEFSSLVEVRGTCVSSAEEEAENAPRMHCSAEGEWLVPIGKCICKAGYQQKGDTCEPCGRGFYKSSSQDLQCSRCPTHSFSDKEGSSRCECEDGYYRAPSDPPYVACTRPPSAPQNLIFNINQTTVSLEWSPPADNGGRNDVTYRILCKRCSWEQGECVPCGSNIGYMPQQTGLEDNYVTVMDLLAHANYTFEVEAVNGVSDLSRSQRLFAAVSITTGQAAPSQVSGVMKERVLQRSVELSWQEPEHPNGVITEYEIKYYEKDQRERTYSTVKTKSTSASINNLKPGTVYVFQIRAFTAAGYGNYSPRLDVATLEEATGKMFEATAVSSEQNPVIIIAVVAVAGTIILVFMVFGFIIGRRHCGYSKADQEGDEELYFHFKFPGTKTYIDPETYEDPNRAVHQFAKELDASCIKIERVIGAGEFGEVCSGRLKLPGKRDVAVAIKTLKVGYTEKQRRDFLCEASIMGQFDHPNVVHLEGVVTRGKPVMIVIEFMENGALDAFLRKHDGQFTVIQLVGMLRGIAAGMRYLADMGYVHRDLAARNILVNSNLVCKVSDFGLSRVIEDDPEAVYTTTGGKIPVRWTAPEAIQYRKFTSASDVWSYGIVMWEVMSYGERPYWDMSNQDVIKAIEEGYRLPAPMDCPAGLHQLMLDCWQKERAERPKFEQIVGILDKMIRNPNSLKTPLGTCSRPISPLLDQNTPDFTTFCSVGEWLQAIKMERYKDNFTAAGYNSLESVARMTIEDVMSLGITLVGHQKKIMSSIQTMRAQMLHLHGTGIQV

[7] = target: T2, Beta-adrenergic receptor kinase 1 (Homo sapiens, UniProt P25098)
T2 sequence (P25098 whole entry): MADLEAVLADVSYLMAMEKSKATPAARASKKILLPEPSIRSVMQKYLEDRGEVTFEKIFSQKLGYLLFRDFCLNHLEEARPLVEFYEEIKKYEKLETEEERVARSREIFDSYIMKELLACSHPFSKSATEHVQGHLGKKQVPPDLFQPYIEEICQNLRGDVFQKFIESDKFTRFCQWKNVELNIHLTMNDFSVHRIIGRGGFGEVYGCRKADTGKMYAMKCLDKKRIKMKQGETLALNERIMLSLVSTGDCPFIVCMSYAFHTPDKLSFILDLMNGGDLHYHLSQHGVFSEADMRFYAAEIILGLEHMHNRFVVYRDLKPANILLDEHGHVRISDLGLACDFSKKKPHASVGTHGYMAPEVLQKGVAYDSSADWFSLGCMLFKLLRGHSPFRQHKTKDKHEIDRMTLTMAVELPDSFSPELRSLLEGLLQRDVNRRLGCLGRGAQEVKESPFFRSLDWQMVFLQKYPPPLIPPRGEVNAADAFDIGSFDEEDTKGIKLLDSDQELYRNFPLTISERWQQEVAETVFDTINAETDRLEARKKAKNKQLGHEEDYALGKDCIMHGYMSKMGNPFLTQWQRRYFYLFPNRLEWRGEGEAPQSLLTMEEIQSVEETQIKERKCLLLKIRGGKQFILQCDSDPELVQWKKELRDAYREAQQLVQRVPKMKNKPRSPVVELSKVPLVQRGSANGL

[8] = target: Calcium/calmodulin-dependent protein kinase kinase 2 (Homo sapiens, UniProt Q96RR4)
Insulin receptor = Insulin receptor (Homo sapiens, UniProt P06213)
Chain of Insulin receptor (P06213 28-758 limits assumed): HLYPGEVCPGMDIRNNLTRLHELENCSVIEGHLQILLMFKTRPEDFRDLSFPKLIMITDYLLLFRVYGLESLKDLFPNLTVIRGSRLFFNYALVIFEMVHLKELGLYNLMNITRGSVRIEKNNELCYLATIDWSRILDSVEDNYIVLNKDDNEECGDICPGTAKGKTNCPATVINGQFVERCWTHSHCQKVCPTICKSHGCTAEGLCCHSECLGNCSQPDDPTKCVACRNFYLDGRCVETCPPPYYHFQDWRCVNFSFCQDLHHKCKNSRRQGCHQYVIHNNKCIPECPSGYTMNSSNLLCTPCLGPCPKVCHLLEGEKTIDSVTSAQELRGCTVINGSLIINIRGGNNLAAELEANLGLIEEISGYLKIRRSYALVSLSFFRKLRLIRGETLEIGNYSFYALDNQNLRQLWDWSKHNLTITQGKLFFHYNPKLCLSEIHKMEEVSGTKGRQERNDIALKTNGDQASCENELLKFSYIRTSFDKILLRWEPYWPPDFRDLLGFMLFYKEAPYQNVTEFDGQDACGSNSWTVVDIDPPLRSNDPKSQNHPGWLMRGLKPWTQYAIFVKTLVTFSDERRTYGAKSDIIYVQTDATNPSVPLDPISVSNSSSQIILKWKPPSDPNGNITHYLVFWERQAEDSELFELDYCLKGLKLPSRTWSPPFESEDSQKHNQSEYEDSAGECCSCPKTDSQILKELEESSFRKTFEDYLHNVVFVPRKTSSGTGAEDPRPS
Chain of Insulin receptor (P06213 763-1382 limits assumed): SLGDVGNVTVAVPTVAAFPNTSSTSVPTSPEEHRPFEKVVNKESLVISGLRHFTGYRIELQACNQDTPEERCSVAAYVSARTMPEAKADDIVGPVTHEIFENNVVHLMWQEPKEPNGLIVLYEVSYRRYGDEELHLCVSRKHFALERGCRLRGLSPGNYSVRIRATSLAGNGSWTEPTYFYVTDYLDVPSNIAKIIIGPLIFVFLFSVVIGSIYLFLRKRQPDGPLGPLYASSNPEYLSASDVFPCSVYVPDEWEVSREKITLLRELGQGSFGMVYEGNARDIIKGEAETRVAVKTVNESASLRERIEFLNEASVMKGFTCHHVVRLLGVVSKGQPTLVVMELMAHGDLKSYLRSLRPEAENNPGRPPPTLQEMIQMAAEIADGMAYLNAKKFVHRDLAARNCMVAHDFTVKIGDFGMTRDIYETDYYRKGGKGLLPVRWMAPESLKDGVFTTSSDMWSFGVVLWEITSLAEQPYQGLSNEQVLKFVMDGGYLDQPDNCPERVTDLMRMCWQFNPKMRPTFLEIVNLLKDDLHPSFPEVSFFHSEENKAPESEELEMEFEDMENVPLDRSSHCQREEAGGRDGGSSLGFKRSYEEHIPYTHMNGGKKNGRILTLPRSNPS

[9] = target: Mitogen-activated protein kinase kinase kinase 4 (Homo sapiens, UniProt Q9Y6R4)
[10] = target: T3, Tyrosine-protein kinase Tec (Homo sapiens, UniProt P42680)
T3 sequence (P42680 whole entry): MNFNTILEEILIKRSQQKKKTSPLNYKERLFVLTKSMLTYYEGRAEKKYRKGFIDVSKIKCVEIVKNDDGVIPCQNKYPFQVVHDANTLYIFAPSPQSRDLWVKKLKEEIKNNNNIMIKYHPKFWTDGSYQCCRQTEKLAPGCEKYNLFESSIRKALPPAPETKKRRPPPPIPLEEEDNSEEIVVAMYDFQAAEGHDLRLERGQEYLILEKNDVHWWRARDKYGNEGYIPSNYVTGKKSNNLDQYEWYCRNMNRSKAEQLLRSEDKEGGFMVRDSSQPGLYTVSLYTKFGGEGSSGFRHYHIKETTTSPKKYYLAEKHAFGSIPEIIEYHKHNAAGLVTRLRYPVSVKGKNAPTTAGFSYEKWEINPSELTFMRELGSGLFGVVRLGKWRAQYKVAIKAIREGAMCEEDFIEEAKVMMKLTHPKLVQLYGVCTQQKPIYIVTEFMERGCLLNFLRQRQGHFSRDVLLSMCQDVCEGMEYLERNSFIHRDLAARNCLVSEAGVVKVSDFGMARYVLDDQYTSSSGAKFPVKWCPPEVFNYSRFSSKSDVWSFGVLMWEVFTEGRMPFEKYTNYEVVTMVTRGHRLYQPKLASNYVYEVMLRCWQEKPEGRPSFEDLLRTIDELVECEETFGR

[11] = target: BMP-2-inducible protein kinase (Homo sapiens, UniProt Q9NSY1)
[12] = target: Cyclin-dependent kinase 6 (Homo sapiens, UniProt Q00534)
Chain of Cyclin-dependent kinase 6 (Q00534 whole entry): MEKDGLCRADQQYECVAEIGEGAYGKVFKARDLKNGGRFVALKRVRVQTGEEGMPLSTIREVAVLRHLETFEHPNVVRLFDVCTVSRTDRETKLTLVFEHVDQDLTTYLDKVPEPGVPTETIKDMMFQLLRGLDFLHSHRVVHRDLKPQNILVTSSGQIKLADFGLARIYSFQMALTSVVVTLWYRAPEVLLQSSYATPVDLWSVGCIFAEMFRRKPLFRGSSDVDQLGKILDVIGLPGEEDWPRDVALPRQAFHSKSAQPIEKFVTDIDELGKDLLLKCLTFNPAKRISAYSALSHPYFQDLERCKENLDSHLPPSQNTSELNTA

[13] = target: Ribosomal protein S6 kinase alpha-1 (Homo sapiens, UniProt Q15418)
Chain of Ribosomal protein S6 kinase alpha-1 (Q15418 whole entry): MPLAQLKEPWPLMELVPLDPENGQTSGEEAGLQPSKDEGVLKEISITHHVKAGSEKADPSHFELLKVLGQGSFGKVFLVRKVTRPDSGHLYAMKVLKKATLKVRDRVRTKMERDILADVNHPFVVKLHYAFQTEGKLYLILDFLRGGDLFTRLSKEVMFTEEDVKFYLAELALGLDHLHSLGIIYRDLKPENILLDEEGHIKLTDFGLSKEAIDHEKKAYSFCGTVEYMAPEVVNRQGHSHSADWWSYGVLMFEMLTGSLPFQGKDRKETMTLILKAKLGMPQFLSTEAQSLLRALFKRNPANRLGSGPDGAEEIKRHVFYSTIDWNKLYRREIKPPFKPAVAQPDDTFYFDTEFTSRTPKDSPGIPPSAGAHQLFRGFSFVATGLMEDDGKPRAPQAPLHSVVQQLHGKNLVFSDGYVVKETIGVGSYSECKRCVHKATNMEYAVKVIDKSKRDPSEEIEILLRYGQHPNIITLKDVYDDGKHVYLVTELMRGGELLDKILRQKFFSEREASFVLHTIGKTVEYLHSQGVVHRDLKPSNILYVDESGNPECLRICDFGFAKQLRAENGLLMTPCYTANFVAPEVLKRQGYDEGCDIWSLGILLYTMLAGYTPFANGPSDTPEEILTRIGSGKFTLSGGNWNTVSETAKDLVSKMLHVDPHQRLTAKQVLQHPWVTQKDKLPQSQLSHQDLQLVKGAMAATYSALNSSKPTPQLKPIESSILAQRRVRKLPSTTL

Ephrin type-A receptor 2 = Ephrin type-A receptor 2 (Homo sapiens, UniProt P29317)
Chain of Ephrin type-A receptor 2 (P29317 whole entry): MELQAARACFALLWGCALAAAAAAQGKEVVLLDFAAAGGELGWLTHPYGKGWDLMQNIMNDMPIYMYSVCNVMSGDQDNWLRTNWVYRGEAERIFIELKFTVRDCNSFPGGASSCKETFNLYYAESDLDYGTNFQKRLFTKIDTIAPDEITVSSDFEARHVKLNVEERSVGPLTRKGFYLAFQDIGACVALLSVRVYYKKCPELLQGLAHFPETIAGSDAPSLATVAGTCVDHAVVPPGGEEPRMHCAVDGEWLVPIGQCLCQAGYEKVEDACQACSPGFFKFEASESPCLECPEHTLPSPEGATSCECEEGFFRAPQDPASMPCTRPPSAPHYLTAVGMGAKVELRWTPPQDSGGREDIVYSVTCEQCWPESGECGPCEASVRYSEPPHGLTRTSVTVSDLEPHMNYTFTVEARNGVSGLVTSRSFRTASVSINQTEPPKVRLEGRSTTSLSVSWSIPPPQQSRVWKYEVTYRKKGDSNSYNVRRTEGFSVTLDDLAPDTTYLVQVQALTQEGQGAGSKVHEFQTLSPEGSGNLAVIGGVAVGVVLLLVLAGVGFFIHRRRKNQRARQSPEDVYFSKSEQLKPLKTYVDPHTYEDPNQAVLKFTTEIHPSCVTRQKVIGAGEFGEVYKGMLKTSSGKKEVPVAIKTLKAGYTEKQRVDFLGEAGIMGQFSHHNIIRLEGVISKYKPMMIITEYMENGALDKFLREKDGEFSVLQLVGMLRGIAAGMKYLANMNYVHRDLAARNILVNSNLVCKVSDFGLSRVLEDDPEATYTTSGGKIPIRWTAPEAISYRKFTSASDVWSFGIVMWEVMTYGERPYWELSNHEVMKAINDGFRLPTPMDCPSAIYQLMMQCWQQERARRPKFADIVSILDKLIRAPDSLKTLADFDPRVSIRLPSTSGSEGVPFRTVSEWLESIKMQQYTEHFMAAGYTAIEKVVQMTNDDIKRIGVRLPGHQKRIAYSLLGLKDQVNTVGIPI

Row | Kd [1] | Kd [2] | Kd [3] | Kd [4] | Kd [5] | Kd (Adenosine kinase) | Kd [6] | Kd (Ephrin type-A receptor 7) | Kd [7] | Kd [8] | Kd (Insulin receptor) | Kd [9] | Kd [10] | Kd [11] | Kd [12] | Kd [13] | Kd (Ephrin type-A receptor 2) | SMILES
1 | > 30 µM (inactive) | > 30 µM (inactive) | > 30 µM (inactive) | > 30 µM (inactive) | > 30 µM (inactive) | > 30 µM (inactive) | > 30 µM (inactive) | 0.008 µM (active) | > 30 µM (inactive) | > 30 µM (inactive) | > 30 µM (inactive) | – | – | – | – | – | – | O=C(Nc1c[nH]nc1-c1nc2cc(CN3CCOCC3)ccc2[nH]1)NC1CC1 [AT-9283]
2 | 2.68 µM (active) | > 30 µM (inactive) | > 30 µM (inactive) | 0.245 µM | > 30 µM (inactive) | > 30 µM (inactive) | > 30 µM (inactive) | > 30 µM (inactive) | > 30 µM (inactive) | > 30 µM (inactive) | – | > 30 µM (inactive) | > 30 µM (inactive) | > 30 µM (inactive) | > 30 µM (inactive) | > 30 µM (inactive) | – | COc1cc2ncnc(Oc3cccc(NC(=O)Nc4cc(C(C)(C)C(F)(F)F)on4)c3)c2cc1OC [CEP-32496]
3 | > 30 µM (inactive) | > 30 µM (inactive) | > 30 µM (inactive) | > 30 µM (inactive) | > 30 µM (inactive) | > 30 µM (inactive) | > 30 µM (inactive) | > 30 µM (inactive) | > 30 µM (inactive) | 5.43 µM (active) | – | > 30 µM (inactive) | > 30 µM (inactive) | > 30 µM (inactive) | > 30 µM (inactive) | 21.4 µM (active) | > 30 µM (inactive) | Cc1cc(Nc2ncc(Cl)c(Nc3ccccc3S(=O)(=O)C(C)C)n2)c(OC(C)C)cc1C1CCNCC1 [CERITINIB]
4 | > 30 µM (inactive) | > 30 µM (inactive) | 3.29 µM (active) | > 30 µM (inactive) | > 30 µM (inactive) | > 30 µM (inactive) | > 30 µM (inactive) | > 30 µM (inactive) | – | > 30 µM (inactive) | – | 1.43 µM (active) | > 30 µM (inactive) | – | > 30 µM (inactive) | – | > 30 µM (inactive) | CCn1cc(-c2ccnc3[nH]c(-c4cccc(CN(C)C)c4)cc23)c(-c2ccc(NC(=O)N(C)C)cc2)n1 [GSK-1070916]
5 | – | > 30 µM (inactive) | > 30 µM (inactive) | > 30 µM (inactive) | > 30 µM (inactive) | > 30 µM (inactive) | > 30 µM (inactive) | > 30 µM (inactive) | > 30 µM (inactive) | > 30 µM (inactive) | > 30 µM (inactive) | > 30 µM (inactive) | > 30 µM (inactive) | > 30 µM (inactive) | > 30 µM (inactive) | > 30 µM (inactive) | > 30 µM (inactive) | CNC(=O)c1cccc2cc(Oc3ccnc4cc(OCC5(N)CC5)c(OC)cc34)ccc12 [LUCITANIB]
6 | > 30 µM (inactive) | > 30 µM (inactive) | > 30 µM (inactive) | > 30 µM (inactive) | > 30 µM (inactive) | > 30 µM (inactive) | > 30 µM (inactive) | > 30 µM (inactive) | > 30 µM (inactive) | – | > 30 µM (inactive) | 4.02 µM (active) | > 30 µM (inactive) | > 30 µM (inactive) | 1.72 µM (active) | > 30 µM (inactive) | 0.661 µM (active) | CNC(=O)c1nn(C)c2c1C(C)(C)Cc1cnc(Nc3ccc(N4CCN(C)CC4)cc3)nc1-2 [MILCICLIB]
7 | > 30 µM (inactive) | – | > 30 µM (inactive) | 2.37 µM (active) | > 30 µM (inactive) | > 30 µM (inactive) | > 30 µM (inactive) | > 30 µM (inactive) | > 30 µM (inactive) | > 30 µM (inactive) | > 30 µM (inactive) | > 30 µM (inactive) | > 30 µM (inactive) | > 30 µM (inactive) | > 30 µM (inactive) | > 30 µM (inactive) | > 30 µM (inactive) | N#CC1(c2ccc(NC(=O)c3cccnc3NCc3ccncc3)cc2)CCCC1 [RIVOCERANIB]
8 | > 30 µM (inactive) | > 30 µM (inactive) | > 30 µM (inactive) | > 30 µM (inactive) | > 30 µM (inactive) | > 30 µM (inactive) | > 30 µM (inactive) | 0.615 µM (active) | > 30 µM (inactive) | > 30 µM (inactive) | > 30 µM (inactive) | > 30 µM (inactive) | 0.282 µM (active) | 0.695 µM (active) | > 30 µM (inactive) | – | 0.178 µM (active) | CCS(=O)(=O)c1cccc(-c2cc(C(=O)NC3CCN(C)CC3)c(C)c3[nH]c4ncc(C)cc4c23)c1 [TAK-901]
9 | > 30 µM (inactive) | > 30 µM (inactive) | > 30 µM (inactive) | > 30 µM (inactive) | > 30 µM (inactive) | > 30 µM (inactive) | > 30 µM (inactive) | – | > 30 µM (inactive) | > 30 µM (inactive) | > 30 µM (inactive) | > 30 µM (inactive) | > 30 µM (inactive) | > 30 µM (inactive) | > 30 µM (inactive) | > 30 µM (inactive) | > 30 µM (inactive) | O=C1NC(=O)[C@@H](c2cn3c4c(cccc24)CCC3)[C@@H]1c1c[nH]c2ccccc12 [TIVANTINIB]

Row | SMILES | Kd [1] | Kd [2] | Kd [3] | Kd [4] | Kd [5] | Kd (Adenosine kinase) | Kd [6] | Kd (Ephrin type-A receptor 7) | Kd [7] | Kd [8] | Kd (Insulin receptor) | Kd [9] | Kd [10] | Kd [11] | Kd [12] | Kd [13] | Kd (Ephrin type-A receptor 2)
10 | CCOc1cc2ncc(C#N)c(Nc3ccc(F)c(Cl)c3)c2cc1NC(=O)/C=C/CN(C)C [PELITINIB] | > 30 µM (inactive) | > 30 µM (inactive) | > 30 µM (inactive) | > 30 µM (inactive) | > 30 µM (inactive) | > 30 µM (inactive) | > 30 µM (inactive) | > 30 µM (inactive) | > 30 µM (inactive) | 1.39 µM (active) | > 30 µM (inactive) | – | > 30 µM (inactive) | – | > 30 µM (inactive) | > 30 µM (inactive) | > 30 µM (inactive)
